Reference: US20250360161A1, “CHEMICALLY MODIFIED HEPARIN” (IHP Therapeutics Inc., priority 2022, published 2025)

Key:
[1] = test system: BxPC3 human pancreatic cancer cells; assay: Pancreatic cancer BxPC3 subcutaneous model, tumor volume; format: in vivo, nude mice; details: day 70; gemcitabine 100 mg/kg i.p. q3 day; Compounds A, B 5 mg/kg s.c. bid, 10 mg/kg from day 56
Method: A study was conducted to evaluate the anti-cancer activity of Compound A and Compound B in a mouse model of pancreatic cancer. Human pancreatic cancer cells, BxPC3, were implanted subcutaneously (1×10^6 cells in 100 μL Matrigel) in 6 week old female nude mice (5 mice per group). Treatment began on day 7 after implantation, with either gemcitabine (100 mg/kg i.p. q3 day), Compound A (5 mg/kg s.c. bid), or Compound B (5 mg/kg s.c. bid). Tumor volume was measured with calipers each week. On day 56 the dose of both Compound A and B were increased to 10 mg/kg s.c. bid. At day 70 animals were sacrificed and tumors resected, fixed, and stored for further testing.

P-selectin = assay: P-selectin-mediated HL-60 cell binding to immobilized P-selectin/Fc chimera; format: cell-based; details: HL-60 cells, best-fit values
Method: 96 well plates were coated with 10 μg/mL Protein A overnight, then blocked with 2% FBS for 1 hour. 2 μg/mL P-selectin/Fc chimera was bound to the Protein A for 3 hours at 4° C. HL-60 cells (2e5 cells/well, CMFDA labeled) were then layered onto the P-selectin and allowed to bind for 1 hour at room temperature. Wells were treated concurrently with test samples to determine inhibitory binding activity. After 1 hour, unbound cells were washed and bound cells lysed in a 1% Triton-X solution and read on a Fluorimeter at 480/520 nm.

Compound	reduction of tumor volume [1]	P-sel IC50 (P-selectin) [µg/mL]
Nc1ccn([C@@H]2O[C@H](CO)[C@@H](O)C2(F)F)c(=O)n1 [Gemcitabine, gemcitabine]	approximately 58%	–
enoxaparin	–	64.72
